# PubChem BioAssay (NCI)
#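 Five compound concentrations were applied to cells in 96-well plates for 48 hours; endpoints were derived by simple linear interpolation of the resulting dose-response curve. TGI marks complete inhibition of growth.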
# Experiments:
# Assay in all cases: inhibition of tumour cell growth, NCI panel, 48 h
# 786-0 renal = tested on: 786-0 renal
# A498 renal = tested on: A498 renal
# A549 NSCLC = tested on: A549 NSCLC
# ACHN renal = tested on: ACHN renal
# BT-549 breast = tested on: BT-549 breast
# CAKI-1 renal = tested on: CAKI-1 renal
# COLO 205 colon = tested on: COLO 205 colon
# DU-145 prostate = tested on: DU-145 prostate
# EKVX NSCLC = tested on: EKVX NSCLC
# HCC-2998 colon = tested on: HCC-2998 colon
# HCT-15 colon = tested on: HCT-15 colon
# HOP-62 NSCLC = tested on: HOP-62 NSCLC
# HOP-92 NSCLC = tested on: HOP-92 NSCLC
# HS 578T breast = tested on: HS 578T breast
# IGROV1 ovarian = tested on: IGROV1 ovarian
# K-562 leukemia = tested on: K-562 leukemia
# KM12 colon = tested on: KM12 colon
# LOX IMVI melanoma = tested on: LOX IMVI melanoma
# M14 melanoma = tested on: M14 melanoma
# MALME-3M melanoma = tested on: MALME-3M melanoma
# MCF7 breast = tested on: MCF7 breast
# MDA-MB-231 breast = tested on: MDA-MB-231 breast
# MDA-MB-435 = tested on: MDA-MB-435
# MDA-N = tested on: MDA-N
# NCI-H23 lung = tested on: NCI-H23 lung
# NCI-H460 lung = tested on: NCI-H460 lung
# NCI-H522 lung = tested on: NCI-H522 lung
# NCI/ADR-RES ovarian = tested on: NCI/ADR-RES ovarian
# OVCAR-3 ovarian = tested on: OVCAR-3 ovarian
# OVCAR-4 ovarian = tested on: OVCAR-4 ovarian
# OVCAR-5 ovarian = tested on: OVCAR-5 ovarian
# OVCAR-8 ovarian = tested on: OVCAR-8 ovarian
# PC-3 prostate = tested on: PC-3 prostate
# RPMI-8226 leukemia = tested on: RPMI-8226 leukemia
# RXF 393 renal = tested on: RXF 393 renal
# SF-268 CNS = tested on: SF-268 CNS
# SF-295 CNS = tested on: SF-295 CNS
# SK-MEL-2 melanoma = tested on: SK-MEL-2 melanoma
# SK-MEL-28 melanoma = tested on: SK-MEL-28 melanoma
# SK-MEL-5 melanoma = tested on: SK-MEL-5 melanoma
# SK-OV-3 ovarian = tested on: SK-OV-3 ovarian
# SN12C renal = tested on: SN12C renal
# SNB-19 CNS = tested on: SNB-19 CNS
# SNB-75 CNS = tested on: SNB-75 CNS
# SR leukemia = tested on: SR leukemia
# SW-620 colon = tested on: SW-620 colon
# T-47D breast = tested on: T-47D breast
# TK-10 renal = tested on: TK-10 renal
# U251 CNS = tested on: U251 CNS
# UACC-257 melanoma = tested on: UACC-257 melanoma
# UACC-62 melanoma = tested on: UACC-62 melanoma
# UO-31 renal = tested on: UO-31 renal
# CCRF-CEM leukemia = tested on: CCRF-CEM leukemia
# HCT-116 colon = tested on: HCT-116 colon
# HL-60(TB) leukemia = tested on: HL-60(TB) leukemia
# HT29 colon = tested on: HT29 colon
# MOLT-4 leukemia = tested on: MOLT-4 leukemia
# NCI-H226 lung = tested on: NCI-H226 lung
# SF-539 CNS = tested on: SF-539 CNS
smiles,measurement,setting,value
COC(=O)[C@]12C3=C(O)C(=O)C[C@H]1OC[C@H]2C=CC3,TGI,786-0 renal,> 100 µM
same,TGI,A498 renal,> 100 µM
same,TGI,A549 NSCLC,> 100 µM
same,TGI,ACHN renal,> 100 µM
same,TGI,BT-549 breast,> 100 µM
same,TGI,CAKI-1 renal,> 100 µM
same,TGI,COLO 205 colon,> 100 µM
same,TGI,DU-145 prostate,> 100 µM
same,TGI,EKVX NSCLC,> 100 µM
same,TGI,HCC-2998 colon,> 100 µM
same,TGI,HCT-15 colon,> 100 µM
same,TGI,HOP-62 NSCLC,> 100 µM
same,TGI,HOP-92 NSCLC,> 100 µM
same,TGI,HS 578T breast,> 100 µM
same,TGI,IGROV1 ovarian,> 100 µM
same,TGI,K-562 leukemia,> 100 µM
same,TGI,KM12 colon,> 100 µM
same,TGI,LOX IMVI melanoma,> 100 µM
same,TGI,M14 melanoma,> 100 µM
same,TGI,MALME-3M melanoma,> 100 µM
same,TGI,MCF7 breast,> 100 µM
same,TGI,MDA-MB-231 breast,> 100 µM
same,TGI,MDA-MB-435,> 100 µM
same,TGI,MDA-N,> 100 µM
same,TGI,NCI-H23 lung,> 100 µM
same,TGI,NCI-H460 lung,> 100 µM
same,TGI,NCI-H522 lung,46.8 µM
same,TGI,NCI/ADR-RES ovarian,> 100 µM
same,TGI,OVCAR-3 ovarian,> 100 µM
same,TGI,OVCAR-4 ovarian,> 100 µM
same,TGI,OVCAR-5 ovarian,> 100 µM
same,TGI,OVCAR-8 ovarian,> 100 µM
same,TGI,PC-3 prostate,> 100 µM
same,TGI,RPMI-8226 leukemia,> 100 µM
same,TGI,RXF 393 renal,> 100 µM
same,TGI,SF-268 CNS,> 100 µM
same,TGI,SF-295 CNS,> 100 µM
same,TGI,SK-MEL-2 melanoma,> 100 µM
same,TGI,SK-MEL-28 melanoma,> 100 µM
same,TGI,SK-MEL-5 melanoma,> 100 µM
same,TGI,SK-OV-3 ovarian,> 100 µM
same,TGI,SN12C renal,> 100 µM
same,TGI,SNB-19 CNS,> 100 µM
same,TGI,SNB-75 CNS,> 100 µM
same,TGI,SR leukemia,> 100 µM
same,TGI,SW-620 colon,63.4 µM
same,TGI,T-47D breast,> 100 µM
same,TGI,TK-10 renal,> 100 µM
same,TGI,U251 CNS,> 100 µM
same,TGI,UACC-257 melanoma,> 100 µM
same,TGI,UACC-62 melanoma,> 100 µM
same,TGI,UO-31 renal,> 100 µM
O=CC(O)C(O)C1OC(=O)c2cc(O)c(O)c(O)c2C2=C(O)C(O)=C3OC(=O)c4c(c(O)c(O)c5c4C3C2C(=O)O5)-c2c(cc(O)c(O)c2O)C(=O)OCC1O (stereo unspecified),TGI,786-0 renal,32.2 µM
same,TGI,A498 renal,> 100 µM
same,TGI,A549 NSCLC,> 100 µM
same,TGI,ACHN renal,> 100 µM
same,TGI,BT-549 breast,> 100 µM
same,TGI,CAKI-1 renal,37.7 µM
same,TGI,CCRF-CEM leukemia,> 100 µM
same,TGI,COLO 205 colon,> 100 µM
same,TGI,DU-145 prostate,> 100 µM
same,TGI,EKVX NSCLC,> 100 µM
same,TGI,HCC-2998 colon,> 100 µM
same,TGI,HCT-116 colon,29 µM
same,TGI,HCT-15 colon,> 100 µM
same,TGI,HL-60(TB) leukemia,67.7 µM
same,TGI,HOP-62 NSCLC,> 100 µM
same,TGI,HOP-92 NSCLC,98.2 µM
same,TGI,HS 578T breast,> 100 µM
same,TGI,HT29 colon,42.9 µM
same,TGI,IGROV1 ovarian,> 100 µM
same,TGI,K-562 leukemia,56.7 µM
same,TGI,KM12 colon,31.2 µM
same,TGI,LOX IMVI melanoma,31.9 µM
same,TGI,M14 melanoma,> 100 µM
same,TGI,MALME-3M melanoma,> 100 µM
same,TGI,MCF7 breast,39.7 µM
same,TGI,MDA-MB-231 breast,58.1 µM
same,TGI,MDA-MB-435,34.1 µM
same,TGI,MDA-N,41.1 µM
same,TGI,MOLT-4 leukemia,63.3 µM
same,TGI,NCI-H226 lung,> 100 µM
same,TGI,NCI-H23 lung,> 100 µM
same,TGI,NCI-H460 lung,> 100 µM
same,TGI,NCI-H522 lung,86.4 µM
same,TGI,NCI/ADR-RES ovarian,> 100 µM
same,TGI,OVCAR-3 ovarian,57 µM
same,TGI,OVCAR-4 ovarian,51.5 µM
same,TGI,OVCAR-5 ovarian,> 100 µM
same,TGI,OVCAR-8 ovarian,45.9 µM
same,TGI,PC-3 prostate,> 100 µM
same,TGI,RPMI-8226 leukemia,> 100 µM
same,TGI,RXF 393 renal,> 100 µM
same,TGI,SF-268 CNS,> 100 µM
same,TGI,SF-295 CNS,> 100 µM
same,TGI,SK-MEL-2 melanoma,> 100 µM
same,TGI,SK-MEL-28 melanoma,> 100 µM
same,TGI,SK-MEL-5 melanoma,> 100 µM
same,TGI,SK-OV-3 ovarian,> 100 µM
same,TGI,SN12C renal,30.4 µM
same,TGI,SNB-19 CNS,> 100 µM
same,TGI,SNB-75 CNS,> 100 µM
same,TGI,SR leukemia,63 µM
same,TGI,SW-620 colon,36.3 µM
same,TGI,T-47D breast,> 100 µM
same,TGI,U251 CNS,70.2 µM
same,TGI,UACC-257 melanoma,> 100 µM
same,TGI,UACC-62 melanoma,> 100 µM
same,TGI,UO-31 renal,> 100 µM
NNC(=O)CCc1ccc2ccc3ccccc3c2c1,TGI,786-0 renal,> 100 µM
same,TGI,A498 renal,> 100 µM
same,TGI,ACHN renal,> 100 µM
same,TGI,BT-549 breast,> 100 µM
same,TGI,CAKI-1 renal,> 100 µM
same,TGI,CCRF-CEM leukemia,> 100 µM
same,TGI,COLO 205 colon,> 100 µM
same,TGI,DU-145 prostate,> 100 µM
same,TGI,EKVX NSCLC,97.9 µM
same,TGI,HCC-2998 colon,> 100 µM
same,TGI,HCT-116 colon,> 100 µM
same,TGI,HCT-15 colon,> 100 µM
same,TGI,HL-60(TB) leukemia,> 100 µM
same,TGI,HOP-62 NSCLC,> 100 µM
same,TGI,HOP-92 NSCLC,> 100 µM
same,TGI,HS 578T breast,> 100 µM
same,TGI,HT29 colon,> 100 µM
same,TGI,IGROV1 ovarian,> 100 µM
same,TGI,K-562 leukemia,> 100 µM
same,TGI,KM12 colon,> 100 µM
same,TGI,LOX IMVI melanoma,> 100 µM
same,TGI,M14 melanoma,> 100 µM
same,TGI,MALME-3M melanoma,> 100 µM
same,TGI,MCF7 breast,> 100 µM
same,TGI,MDA-MB-231 breast,> 100 µM
same,TGI,MDA-MB-435,> 100 µM
same,TGI,MDA-N,> 100 µM
same,TGI,MOLT-4 leukemia,> 100 µM
same,TGI,NCI-H226 lung,> 100 µM
same,TGI,NCI-H23 lung,> 100 µM
same,TGI,NCI-H460 lung,> 100 µM
same,TGI,NCI-H522 lung,> 100 µM
same,TGI,NCI/ADR-RES ovarian,> 100 µM
same,TGI,OVCAR-3 ovarian,> 100 µM
same,TGI,OVCAR-4 ovarian,> 100 µM
same,TGI,OVCAR-5 ovarian,> 100 µM
same,TGI,OVCAR-8 ovarian,> 100 µM
same,TGI,PC-3 prostate,> 100 µM
same,TGI,RPMI-8226 leukemia,> 100 µM
same,TGI,RXF 393 renal,> 100 µM
same,TGI,SF-268 CNS,> 100 µM
same,TGI,SF-295 CNS,> 100 µM
same,TGI,SF-539 CNS,> 100 µM
same,TGI,SK-MEL-2 melanoma,> 100 µM
same,TGI,SK-MEL-28 melanoma,> 100 µM
same,TGI,SK-MEL-5 melanoma,> 100 µM
same,TGI,SK-OV-3 ovarian,> 100 µM
same,TGI,SN12C renal,> 100 µM
same,TGI,SNB-19 CNS,> 100 µM
same,TGI,SR leukemia,> 100 µM
same,TGI,SW-620 colon,> 100 µM
same,TGI,T-47D breast,> 100 µM
same,TGI,TK-10 renal,> 100 µM
same,TGI,U251 CNS,> 100 µM
same,TGI,UACC-257 melanoma,> 100 µM
same,TGI,UACC-62 melanoma,> 100 µM
same,TGI,UO-31 renal,> 100 µM
